This is an account of results in patent US8063075B2, “Pyrrolidine ether derivatives as NK3 receptor antagonists” (Hoffmann-La Roche Inc., priority 2008, dated 2011).

The conditions of experiment [1]: phase II trial, cited from earlier work.
Experiment [2] addresses T1, recombinant human NK3 receptor (Homo sapiens, UniProt P29371).
T1 construct: expressed in transfected cells; host or cells: HEK293 cells (transient expression), membranes
T1 sequence (P29371 1-465): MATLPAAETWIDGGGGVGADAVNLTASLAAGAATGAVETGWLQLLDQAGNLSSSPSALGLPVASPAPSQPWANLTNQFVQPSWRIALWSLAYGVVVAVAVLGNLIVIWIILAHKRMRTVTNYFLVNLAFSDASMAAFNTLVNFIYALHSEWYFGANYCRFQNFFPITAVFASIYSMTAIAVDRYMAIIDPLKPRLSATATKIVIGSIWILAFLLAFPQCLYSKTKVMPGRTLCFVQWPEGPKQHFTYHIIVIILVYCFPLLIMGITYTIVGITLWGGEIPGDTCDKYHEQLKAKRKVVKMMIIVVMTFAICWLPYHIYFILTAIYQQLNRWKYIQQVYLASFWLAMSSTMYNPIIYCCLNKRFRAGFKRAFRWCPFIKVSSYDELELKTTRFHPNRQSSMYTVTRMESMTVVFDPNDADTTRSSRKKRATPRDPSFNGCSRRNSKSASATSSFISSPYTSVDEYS
The experiment in a line: [3H]SR142801 competition binding assay. Particulars: membranes from HEK293 cells transiently expressing hNK3; [3H]SR142801 at its KD; 75 min RT; read-out: Data [μM] (affinity constant Ki, hNK3 receptor binding). On the procedure: [^3H]SR142801 Competition Binding Assay
hNK3 receptor binding experiment were performed using [^3H]SR142801 (Catalog No. TRK1035, specific activity: 74.0 Ci/mmol, Amersham, GE Healthcare UK limited, Buckinghamshire, UK) and membrane isolated from HEK293 cells transiently expressing recombinant human NK3 receptor. After thawing, the membrane homogenates were centrifuged at 48,000×g for 10 min at 4° C., the pellets were resuspended in the 50 mM Tris-HCl, 4 mM MnCl2, 1 μM phosphoramidon, 0.1% BSA binding buffer at pH 7.4 to a final assay concentration of 5 μg protein/well. […] At the end of the incubation, membranes were filtered onto unitfilter (96-well white microplate with bonded GF/C filter preincubated 1 h in 0.3% PEI+0.3% BSA, Packard BioScience, Meriden, Conn.) with a Filtermate 196 harvester (Packard BioScience) and washed 4 times with ice-cold 50 mM Tris-HCl, pH 7.4 buffer. Nonspecific binding was measured in the presence of 10 μM SB222200 for both radioligands. The radioactivity on the filter was counted (5 min) on a Packard Top-count microplate scintillation counter with quenching correction after addition of 45 μl of microscint 40 (Can berra Packard S. A., Zürich, Switzerland) and shaking for 1 h. Inhibition curves were fitted according to the Hill equation: y=100/(1+(x/IC50)^nH), where nH=slope factor using Excel-fit 4 software (Microsoft). IC50 values were derived from the inhibition curve and the affinity constant (Ki) values were calculated using the Cheng-Prussoff equation Ki=IC50/(1+[L]/KD) where [L] is the concentration of radioligand and KD is its dissociation constant at the receptor, derived from the saturation isotherm. All experiments were performed in duplicate and the mean±standard error (SEM) of the individual Ki values was calculated.

As to `CC(=O)N(C)C1(c2ccccc2)CCN(CCC[C@]2(c3ccc(Cl)c(Cl)c3)CCCN(C(=O)c3ccccc3)C2)CC1` [SR 142,801, Osanetant], in experiment [1] (altered behaviour, delusion, hallucinations, extreme emotions, excited motor activity, incoherent speech), the “activity on positive symptoms of schizophrenia” value was “active”. Moreover, in experiment [1] (depression, anhedonia, social isolation or memory and attention deficits), the “activity in the treatment of negative symptoms” value was “inactive”.
As to `C[C@H](Oc1ccc(Cl)cn1)[C@H]1CN(C(=O)C2CCN(C(=O)C3(C)CC3)CC2)C[C@@H]1c1ccc(F)cc1F` (racemic) [Example 48, [(3RS,4SR)-3-[(SR)-1-(5-Chloro-pyridin-2-yloxy)-ethyl]-4-(2,4-difluoro-phenyl)-pyrrolidin-1-yl]-[1-(1-methyl-cyclopropanecarbonyl)-piperidin-4-yl]-methanone], in experiment [2], the Ki worked out at 0.0074 µM.
Same read-out and setting: to `CC(=O)N1CCC(C(=O)N2C[C@H]([C@H](C)Oc3ccc(Cl)cn3)[C@@H](c3ccc(Cl)c(Cl)c3)C2)CC1` (racemic) [Example 1, 1-{4-[(3RS,4SR)-3-[(SR)-1-(5-Chloro-pyridin-2-yloxy)-ethyl]-4-(3,4-dichloro-phenyl)-pyrrolidine-1-carbonyl]-piperidin-1-yl}-ethanone] belongs 0.0047 µM; to `CCC(=O)N1CCC(C(=O)N2C[C@H]([C@H](C)Oc3ccc(C#N)cn3)[C@@H](c3ccc(Cl)c(Cl)c3)C2)CC1` (racemic) [Example 22, 6-{(SR)-1-[(3RS,4SR)-4-(3,4-Dichloro-phenyl)-1-(1-propionyl-piperidine-4-carbonyl)-pyrrolidin-3-yl]-ethoxy}-nicotinonitrile], 0.0036 µM; to `C[C@H](Oc1ccc(C#N)cn1)[C@H]1CN(C(=O)[C@H]2CC[C@H](N(C)C(=O)OC(C)(C)C)CC2)C[C@@H]1c1ccc(Cl)c(Cl)c1` (racemic) [Example 42, {4-[(3RS,4SR)-3-[(SR)-1-(5-Cyano-pyridin-2-yloxy)-ethyl]-4-(3,4-dichloro-phenyl)-pyrrolidine-1-carbonyl]-cyclohexyl}-methyl-carbamic acid tert-butyl ester], 0.0028 µM.
The same measure, in the same setting: to `CC(=O)N1CCC(C(=O)N2C[C@H]([C@H](C)Oc3ccc(C#N)cn3)[C@@H](c3ccc(Cl)c(Cl)c3)C2)CC1` (racemic) [Example 2, 6-{(SR)-1-[(3RS,4SR)-1-(1-Acetyl-piperidine-4-carbonyl)-4-(3,4-dichloro-phenyl)-pyrrolidin-3-yl]-ethoxy}-nicotinonitrile] belongs 0.0076 µM; to `CC(=O)N(C)[C@H]1CC[C@H](C(=O)N2C[C@H]([C@H](C)Oc3ccc(C#N)cn3)[C@@H](c3ccc(Cl)c(Cl)c3)C2)CC1` (racemic) [Example 45, N-{4-[(3RS,4SR)-3-[(SR)-1-(5-Cyano-pyridin-2-yloxy)-ethyl]-4-(3,4-dichloro-phenyl)-pyrrolidine-1-carbonyl]-cyclohexyl}-N-methyl-acetamide], 0.004 µM.

What is called Ki is a measure of affinity in units of concentration, obtained from inhibition or displacement.
